≈ marks a conversion by molar mass, not a printed value.
Key:
[1] = Solubility by European Pharmacopeia (EP) express method; type: physicochemical; conditions: for solubility: thermodynamic from solid; for solubility / Term by EP: water solubility, ambient conditions, European Pharmacopeia 10.0
Procedure: Solubility is one of the key parameters to describe the biopharmaceutical characteristics of active pharmaceutical ingredients. There are different ways of solubility determination. One of them is an express method widely used in pharmaceutical science, described in European Pharmacopeia (EP). More accurate data may be obtained by the sedimentation method.
The analysis was performed in accordance with the pharmacopoeial monograph of European Pharmacopeia 10.0 [52] at ambient conditions.

[2] = Solubility by sedimentation method (centrifugation, UV spectrometry); type: physicochemical; conditions: for solubility: water, thermodynamic from solid
Procedure: Solubility is one of the key parameters to describe the biopharmaceutical characteristics of active pharmaceutical ingredients. There are different ways of solubility determination. One of them is an express method widely used in pharmaceutical science, described in European Pharmacopeia (EP). More accurate data may be obtained by the sedimentation method. […] To determine the concentration of DHQ solutions, UV spectrometry was applied. Three hundred mg of each DHQ sample were dissolved in 10.0 mL of […] and centrifuged for 5 min at 10,000 rpm by centrifuge MiniSpin® (Eppendorf AG, Hamburg, Germany). The analyzed solutions were prepared by dilution of the supernatant 50 μL up to 25 mL with distilled water. The UV spectra were recorded with a Cary-100 (Varian, Palo Alto, CA, USA). The accurate concentrations were calculated using a calibration curve.

[3] = ABTS/PP antioxidant capacity assay; conditions: for Antioxidant Capacity, n-Value: ABTS•+ radicals scavenged by one molecule of antioxidant, 6 min, 730 nm; for Antioxidant Capacity, n-Value / Antioxidant Capacity, ΔA: mean ± SD; for Antioxidant Capacity, ΔA: absorbance decrease at 730 nm, 6 min incubation at 32 °C, corrected for self-bleaching; for Changes of ΔA and n-values from DHQR (paired Student's t-test): compared with DHQR
Procedure: To compare the antioxidant capacity of DHQ in different forms, we employed the ABTS/PP assay, as reported by Re et al., with some modifications. In brief, an antioxidant was added to the pre-generated stock solution of radical-cation ABTS^•+, and then, after 6 min incubation in the dark place at 32 °C, the decrease in the absorption at 730 nm was calculated. ABTS^•+ self-bleaching after 6 min was measured in the same conditions without the addition of antioxidants. The initial ABTS^•+ absorbance in the incubation mix before the addition of an antioxidant was adjusted to […]. The stock solution of the radical-cation ABTS^•+ was prepared by the incubation of the ABTS with PP at final concentrations of 7 mM and 2.5 mM, respectively, during 12–16 h in the dark. UV-Vis spectra were obtained on a Cary 100 (Varian, Palo Alto, CA, USA).
The absorbance decrease ∆A at 730 nm due to inhibition of radical-cation ABTS^•+ was calculated as follows (5):∆A = A0 − A1 − ∆Asb,(5) where A0 and A1 are the ABTS^•+ absorbances at 730 nm, pathlength 1 cm, before and 6 min after the antioxidant addition, respectively. The self-bleaching of radical-cation ABTS^•+ ∆Asb was calculated as the difference between the ABTS^•+ absorbance right after the addition of stock ABTS^•+ to PBS to give absorbance 1.0 ± 0.1 and 6 min later.
The amount of ABTS^•+ radicals scavenged by one molecule of antioxidant (n-value) was calculated according to the Equation (6):(6) N=CABTS·+/Cantioxidant=ΔA/ε · Cantioxidant, where CABTS^•+ is the concentration of the scavenged ABTS^•+, ε is the extinction at 730 nm 15,000 L·mol^−1·cm^−1, l is the optical pathlength 1 cm, and Cantioxidant is the concentration of the antioxidant.

[4] = 300 mg in 10.0 mL, centrifuged 5 min at 10,000 rpm, UV spectrometry of supernatant, mean ± SD

solubility [1] [µg/mL] | Term by EP [1] | solubility [2, 4] [µg/mL] | Enhancement of water solubility compared with DHQR, EP method ([1]; compared with DHQR) | Increase of solubility compared with DHQR, sedimentation method [2] [times] | Solubility, By Sedimentation Method [2, 4] [µg/mL] | Compound | Antioxidant Capacity, n-Value [3] | Antioxidant Capacity, ΔA [3] | Changes of ΔA and n-values from DHQR (paired Student's t-test) [3]
100 to 1000 (≈ 0.329 to 3.29 mM) | very slightly soluble | 700 ± 20 (≈ 2.3 mM) | – | – | – | O=C1c2c(O)cc(O)cc2OC(c2ccc(O)c(O)c2)C1O (stereo not shown) [DHQR, 2-(3,4-dihydroxyphenyl)-3,5,7-trihydroxy-2,3-dihydro-4H-1-benzopyran-4-one, reference compound] | 7.30 ± 0.24 | 0.511 ± 0.017 | –
– | soluble | 3090 ± 90 (≈ 10.2 mM) | at least 30 fold | 4.4 | – | O=C1c2c(O)cc(O)cc2O[C@H](c2ccc(O)c(O)c2)[C@H]1O [DHQE] | 7.19 ± 0.37 | 0.504 ± 0.026 | statistically non-significant changes
1000 to 10000 (≈ 3.29 to 32.9 mM) | slightly soluble | – | – | 3.1 | 2140 ± 60 (≈ 7.03 mM) | O=C1c2c(O)cc(O)cc2O[C@H](c2ccc(O)c(O)c2)[C@H]1O [DHQA] | 7.13 ± 0.19 | 0.499 ± 0.014 | statistically non-significant changes
